Laboratory results published in publication PMC10897400, “Biochemical and structural characterization of an inositol pyrophosphate kinase from a giant virus” (The EMBO Journal, 2024).

Columns and labels:
TvIPK (full length) = target: T1, TvIPK (full length) (Terrestrivirus sp., UniProt A0A3G4ZNY6); experiment: X-ray crystal structure; format: binding; settings: co-crystallised with 5 mM ADP, 10 mM MgCl2
T1 construct: gene Terrestrivirus9_15; full-length, codon-optimized, E. coli BL21(DE3); N-terminal His6-MBP tag removed with TEV protease
T1 sequence (A0A3G4ZNY6 1-265): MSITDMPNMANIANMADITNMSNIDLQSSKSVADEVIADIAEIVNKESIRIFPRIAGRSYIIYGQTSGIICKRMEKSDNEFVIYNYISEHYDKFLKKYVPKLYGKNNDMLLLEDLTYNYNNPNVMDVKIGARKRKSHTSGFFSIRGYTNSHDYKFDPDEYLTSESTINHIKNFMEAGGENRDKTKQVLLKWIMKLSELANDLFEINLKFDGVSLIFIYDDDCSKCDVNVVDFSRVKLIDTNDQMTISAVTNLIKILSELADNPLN

TvIPK^17-265 = target: T2, TvIPK^17-265 (Terrestrivirus sp., UniProt A0A3G4ZNY6); experiment: X-ray crystal structure; format: binding; settings: Cd2+ in place of Mg2+, soaked 5 mM, Pi present
T2 construct: gene Terrestrivirus9_15; truncated crystallization construct, residues 17-265, E. coli; residues 17-47 not traced; one molecule per asymmetric unit
T2 sequence (A0A3G4ZNY6 17-265): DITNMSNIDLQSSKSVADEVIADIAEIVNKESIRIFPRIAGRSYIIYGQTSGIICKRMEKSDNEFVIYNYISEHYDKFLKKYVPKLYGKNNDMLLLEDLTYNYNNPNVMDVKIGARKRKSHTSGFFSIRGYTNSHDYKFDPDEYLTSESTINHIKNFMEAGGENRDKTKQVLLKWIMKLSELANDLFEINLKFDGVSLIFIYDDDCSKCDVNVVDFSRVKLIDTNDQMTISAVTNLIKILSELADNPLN

[1] = substrate: O=P(O)(O)O[C@H]1[C@H](OP(=O)(O)O)[C@@H](OP(=O)(O)O)[C@H](OP(=O)(O)O)[C@@H](OP(=O)(O)O)[C@H]1OP(=O)(O)O; experiment: HPLC of [3H]IP6 pyrophosphorylation; format: biochemical, Terrestrivirus sp.; settings: 1 mM ATP, 3.5 mM MgCl2, pH 7.2, 25 °C, creatine kinase / creatine phosphate ATP regeneration, labelled compound
HPLC with [gamma-33P]ATP = substrate: Nc1ncnc2c1ncn2[C@@H]1O[C@H](COP(=O)(O)OP(=O)(O)OP(=O)(O)O)[C@@H](O)[C@H]1O; experiment: HPLC with [gamma-33P]ATP; format: biochemical, Terrestrivirus sp.; settings: 2 mM myo-IP6, 3.5 mM MgCl2, pH 7.2, 25 °C, labelled compound

Nc1ncnc2c1ncn2[C@@H]1O[C@H](COP(=O)(O)OP(=O)(O)O)[C@@H](O)[C@H]1O [ADP]
X-ray crystal structure (TvIPK (full length)): in a binary complex of full-length TvIPK plus ADP

Nc1ncnc2c1ncn2[C@@H]1O[C@H](COP(=O)(O)OP(=O)(O)NP(=O)(O)O)[C@@H](O)[C@H]1O [AMP-PNP]
X-ray crystal structure (TvIPK^17-265): We also derived crystal complexes with ATP and AMP-PNP

Nc1ncnc2c1ncn2[C@@H]1O[C@H](COP(=O)(O)OP(=O)(O)OP(=O)(O)O)[C@@H](O)[C@H]1O [ATP]
X-ray crystal structure (TvIPK^17-265; two ATP conformations): by making this substitution, we derived an ATP/TvIPK crystal complex

B1: TvIPK (full length) (Terrestrivirus sp.) (protein)
chain: T1 sequence (A0A3G4ZNY6 1-265)
notes: full-length, codon-optimized, E. coli BL21(DE3); N-terminal His6-MBP tag removed with TEV protease
Km [1]: 81 µM | Km (HPLC with [gamma-33P]ATP): 1600 µM
